Where two headings read alike, the source gives them in different places.
Legend:
[1] = cited from earlier work
infarct size = conditions: continuous arterial infusion over a six-hour period, free (non-liposomal); cited from earlier work
restenosis = conditions: intracoronary infusion over a 24-hour period; cited from earlier work
LPS-induced death = assay: Rat endotoxemia model, LPS-induced mortality; format: in vivo, Male Sprague-Dawley rats; conditions: 50 µg/kg LPS i.v. at time 0, PGE1 40 µg/kg i.v. simultaneously
[2] = tested on: acute myocardial infarction; conditions: slow intracoronary infusion together with intracoronary streptokinase; cited from earlier work
[3] = tested on: leukocyte extravasation from the peripheral vasculature to sites of inflammation; assay: Rat subcutaneous air pouch, fMLP-induced inflammation; format: in vivo, Male Sprague-Dawley rats; conditions: visual examination of post-stimulation air pouch lining
Experimental: • Figure 1. Release of PGE1 from MLVs. The release of prostaglandin E1 (PGE1) from multilamellar vesicles (MLVs) comprising egg phosphatidylcholine (EPC) or dipalmitoyl phosphatidylcholine (DPPC) formed in 50 mM citrate buffer, pH 4.5, and then incubated at room temperature in pH 7.1 buffer for the indicated amount of time, is set forth. X-axis: time (minutes); y-axis: percent PGE1 retained in pelleted liposomes. • Figure 2. Rat Air Pouch Studies. Liposomal PGE1 formulations inhibit the extravasation of leukocytes from the vasculature to the rat air pouch. Subcutaneous air pouches were formed in male Sprague-Dawley rats. fMLP (2.15 µg) was injected directly into the air pouch at time 0, and free or liposomal PGE1 was simultaneously injected intravenously. After six hours, the air pouch exudate was collected and the air pouch total cell population determined. For each treatment group, n=4. […] After six hours, the air pouch exudate was collected, and the air pouch total cell population determined. […] After six hours, the air pouch exudate was collected, and the air pouch total cell population determined. […] After six and 24 hours, the air pouch exudates were collected, and the air pouch total cell populations were determined. […]

adjuvant arthritis = assay: Rat adjuvant arthritis (complete Freund's adjuvant); format: in vivo, Male Lewis rats

| Compound | bioavailability ([1]; free stable prostaglandin analog) | reducing the infarct size (infarct size) | reduction of the rate of restenosis six months after angioplasty versus untreated control group (restenosis) | LPS induced mortality (LPS-induced death) | bioavailability ([1]; free PGE1) | clinical results versus intracoronary streptokinase alone [2] | vascular reactivity and number of leukocytes invading the pouch lining [3] | inhibition of arthritis progression, treatment begun 10 days post-adjuvant (adjuvant arthritis; 10 µg/kg beginning at day 10, every second day) | progression of adjuvant arthritis (weight gain, joint edema) (adjuvant arthritis; 10 µg/kg, injections every second day) | subjective scoring of general health and mobility (adjuvant arthritis; 10 µg/kg, scored at day 14) |
| --- | --- | --- | --- | --- | --- | --- | --- | --- | --- | --- |
| CCCCCC(C)(O)/C=C/[C@H]1[C@H](O)CC(=O)[C@@H]1CCCCCCC(=O)O (some centres unmarked) [15-methyl-PGE1] | ≥ 8 h |  |  |  |  |  |  |  |  |  |
| CCCCC[C@H](O)/C=C/[C@@H]1[C@H]2C/C(=C/CCCC(=O)O)O[C@H]2C[C@H]1O [PGI2] |  | scant effect |  |  |  |  |  |  |  |  |
| CCCCC[C@H](O)/C=C/[C@H]1[C@H](O)CC(=O)[C@@H]1CCCCCCC(=O)O [free PGE1, prostaglandin E1] |  | scant effect | ~50% | increased both the rate and magnitude of LPS induced mortality | < 0.25 h | positive clinical results | reduction in vascular reactivity and a concurrent reduction in the number of leukocytes invading the pouch lining | still receive protection horn disease progression, although the inhibition of arthritis progression was not as profound | attenuated the progression of adjuvant arthritis | maintenance of general health and mobility |

Reference: EP0726764B1, “MULTILAMELLAR LIPOSOMAL ARACHIDONIC ACID METABOLITE FORMULATIONS” (THE LIPOSOME COMPANY, INC., priority 1993, dated 1995)
